Patent US20240002429A1, “PRODRUG OF 5a-HYDROXY-6ß-[2-(1H-IMIDAZOL-4-YL)ETHYLAMINO]CHOLESTAN-3ß-OL AND PHARMACEUTICAL COMPOSITIONS COMPRISING SAME FOR USE IN THE TREATMENT OF CANCER” (priority 2020, published 2024)
Where two headings read alike, the source gives them in different places.

Legend:
[1] = test system: MCF-7 mammary tumor cells; experiment: Morphology of MCF-7 cells under inverted microscope; format: cell-based
Procedure: A cell viability test was carried out on MCF-7 mammary tumor cells (Michigan Cancer Foundation-7) […] (ER(+) cells) containing receptors for the hormone estrogen.
The MCF-7 cells are in a cell culture medium identical to example 14 and are seeded in 12-well plates at 50000 cells per well for 24 h. 24 hours after seeding, the cells are treated with the solvate vehicle comprising water and ethanol with an ethanol ratio 1‰ and comprising 5α-hydroxy-6β-[2-(1H-imidazol-4-yl)-ethylamino]-cholestan-3β-yl propionate or 5α-hydroxy-6β-[2-(1H-imidazol-4-yl)-ethylamino]-cholestan-3β-ol at 1, 2.5 or 5 μM. The cells are observed in an inverted microscope and photographed with the microscope camera at 24 h and 48 h. The morphological changes of the cells at 1 μM are very slight.
In this test: • The white vesicles reflect cell death by cytotoxic autophagy; • The cells that become rounded reflect cell death; • The cells that become detached reflect a cytotoxic effect; • The adherent cells reflect cell survival; • The supernatant cells reflect cell death; and • The refractive cells reflect cell death.

[2] = test system: 4T1 cells; experiment: Cytotoxicity on 4T1 cells, LDH; format: cell-based, murine; conditions: Mus musculus, 4T1, LDH, 48 h
Procedure: The cellular viability tests were carried out on murine mammary tumor 4T1 cells characterized as negative triples (HER2−, ER−, PR−).
For this experiment, a cell culture medium was prepared. The culture medium consists of Dulbecco's Modified Eagle Medium (DMEM, marketed by Westburg under the reference LO BE12-604F), comprising 4.5 g/L glucose with L-glutamine, to which 10% of fetal calf serum (FCS) and 50 U/mL of penicillin/streptomycin are added. The 4T1 cells are introduced into this culture medium.
96-well plates were seeded with 2000 4T1 cells per well. After 72 hours (h) of culture in normal conditions, i.e. in an incubator at a temperature of 37° C. at 5% CO2, the 4T1 cells are treated for 48 h with DX101, DX107, DX113, DX117, DX119, DX121 or DX131 at 100 nM, 1 μM, 2.5 μM and 10 μM. A control condition (CTL) is also carried out in parallel using the protocol described above but without treatment with the molecules DX101, DX107, DX113, DX117, DX119, DX121, DX131 or DX133.
For the second method, the percentage viability is determined using assay of the activity of the enzyme LDH (lactate dehydrogenase) in the cellular supernatants using the kit non radioactive cytotoxicity assay kit (Promega). LDH is an enzyme released in the supernatant of dead cells. The higher the LDH activity in the supernatant, the greater is the cell death. In this enzyme test, the LDH released converts a violet tetrazolium salt to formazan, of red color, absorbing at 490 nm. The intensity of the red color is proportional to the number of dead cells. After 48 h of treatment, the supernatants are transferred to a new 96-well plate and are incubated for 30 minutes in the presence of the substrate mix at room temperature. The reaction is stopped using the stop buffer and the absorbance is determined at 490 nm. The percentage cell death is determined here using a control 100% of maximum activity of LDH (carried out with untreated cells incubated in the presence of the lysis solution for 45 minutes at 37° C. just before adding the substrate mix), and the cellular viability in each well is then deduced from this percentage. IC50 is then determined as explained in the preceding paragraph.

Compound: CC(C)CCC[C@@H](C)[C@H]1CC[C@H]2[C@@H]3C[C@@H](NCCc4c[nH]cn4)[C@@]4(O)C[C@@H](O)CC[C@]4(C)[C@H]3CC[C@]12C [DX101, 5α-hydroxy-6β-[2-(1H-imidazol-4-yl)-ethylamino]-cholestan-3β-ol, reference compound]
- Morphological observations at 24 hours ([1]; MCF-7, 1 μM, 24 h): Some white vesicles
- Observations at 48 hours ([1]; MCF-7, 5 μM, 48 h): All the cells are supernatant.

Compound: CCC(=O)O[C@H]1CC[C@]2(C)[C@H]3CC[C@]4(C)[C@@H]([C@H](C)CCCC(C)C)CC[C@H]4[C@@H]3C[C@@H](NCCc3c[nH]cn3)[C@@]2(O)C1 [DX107, 5α-hydroxy-6β-[2-(1H-imidazol-4-yl)ethylamino]cholestan-3β-yl propionate]
- IC50 ([2]; log of IC50 in μM, read-out: Mean LogIC50 (±SEM) (converted)): 3.31 µM
- IC50 ([2]; read-out: IC50): 3.29 µM
